Measurements from patent US20250032493A1, “Methods for Treating Diseases Using MALT1 Inhibitors” (RARIFIED BIOSCIENCES, INC., priority 2021, published 2025).
Where two headings read alike, the source gives them in different places.

What was measured:
MALT1 = molecular target: T1, MALT1 (Homo sapiens, UniProt Q9UDY8); experiment: Example IC50 and IC90 values of MALT1 inhibitors (blood concentration targets); type: cell-based
T1 sequence (Q9UDY8 1-824): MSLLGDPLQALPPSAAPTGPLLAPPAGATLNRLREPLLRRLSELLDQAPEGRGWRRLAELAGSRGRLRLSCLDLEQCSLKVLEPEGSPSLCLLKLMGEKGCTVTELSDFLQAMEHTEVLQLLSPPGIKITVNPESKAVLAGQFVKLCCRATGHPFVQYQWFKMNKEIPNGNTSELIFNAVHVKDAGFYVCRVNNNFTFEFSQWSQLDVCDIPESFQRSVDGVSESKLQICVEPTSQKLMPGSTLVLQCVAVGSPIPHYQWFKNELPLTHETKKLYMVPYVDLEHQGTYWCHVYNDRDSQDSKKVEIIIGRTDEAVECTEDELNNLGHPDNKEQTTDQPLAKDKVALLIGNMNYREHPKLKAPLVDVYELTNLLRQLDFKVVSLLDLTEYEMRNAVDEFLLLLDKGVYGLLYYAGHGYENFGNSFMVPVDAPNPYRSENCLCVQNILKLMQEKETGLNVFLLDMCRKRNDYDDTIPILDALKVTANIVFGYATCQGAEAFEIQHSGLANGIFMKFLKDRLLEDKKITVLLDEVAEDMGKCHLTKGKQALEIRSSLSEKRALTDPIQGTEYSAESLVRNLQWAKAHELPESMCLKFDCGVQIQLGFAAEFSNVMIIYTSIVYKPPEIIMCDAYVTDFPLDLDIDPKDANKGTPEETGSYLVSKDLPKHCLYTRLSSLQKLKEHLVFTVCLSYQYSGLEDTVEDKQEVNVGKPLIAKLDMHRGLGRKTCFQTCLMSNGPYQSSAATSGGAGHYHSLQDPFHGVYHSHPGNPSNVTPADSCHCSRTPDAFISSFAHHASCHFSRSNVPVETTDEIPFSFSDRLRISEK
Excerpt: In various embodiments, the plasma PK profile of the MALT1 inhibitor refers to a time over an IC50 blood concentration target following administration to the subject. As used herein, a “time over an IC50 blood concentration target” refers to a period of time following administration in which a concentration of the MALT1 inhibitor in the subject's blood is above the IC50 value.
In various embodiments, the plasma PK profile of the MALT1 inhibitor refers to a time over an IC90 blood concentration target following administration to the subject. As used herein, a “time over an IC90 blood concentration target” refers to a period of time following administration in which a concentration of the MALT1 inhibitor in the subject's blood is above the IC90 value.

splenic Tregs = experiment: Rat CIA model: splenic Treg levels; type: in vivo; details: for reduction in the Treg levels: CIA rats, in comparison to vehicle
Procedure: (§1) For isolation of synovial fluid prior to study termination, animals were anesthetized and the skin on the hind limbs were separated to ensure exposure of knee joint. A small incision was made near the top of the knee joint and the articular cavity was rinsed with 60 μl phosphate-buffered saline (PBS) for 2 time and ˜50-60 μl synovial fluid was collected. The synovial fluid samples were spun down, and the supernatant stored at −80° C. prior to cytokine analysis. At study termination, plasma was prepared from whole blood and stored at −80° C. prior to cytokine analysis and measurement of total and anti-collagen IgG. Single cell suspensions were prepared from harvested spleens following standard methods and Treg frequencies measured by flow cytometry-based immunophenotyping of freshly isolated cells.
Harvested spleens were homogenized in cold PBS and cellular debris removed by passing through a […] cell strainer. The cell suspension was centrifuged at 300×g for 5 min at 4° C. and the pellet was treated with 1×RBC lysis buffer per manufacturer's protocol (Thermofisher). The washed cell pellet was resuspended for a final concentration of 5-10×10^6 cells/ml and 100 μl of cell suspension was processed for immunophenotyping. […] Cells were washed with cold FACS wash buffer (BD) and fixed with 1×FoxP3/Transcription Factor Fixation Buffer (Thermofisher) for overnight at 4° C. […] Cells were washed 2-3× with the permeabilization and wash buffer as mentioned earlier, and finally resuspended in FACS wash buffer. Samples were acquired on a BD LSRFortessa flow cytometer and data analyzed using the FlowJo software (BD).

[1] = test system: rat collagen induced arthritis (CIA) model; experiment: Rat CIA model: plasma and synovial cytokines, anti-collagen and total IgG; type: in vivo
Procedure: as §1
All cytokine measurements were performed using commercially available kits and as per manufacturer's protocol. Supernatants from human whole blood and cellular assays were quantified using the human Proinflammatory Panel 1 (human) kit on a Sector Imager 6000 reader (Meso Scale Discovery, Rockville, MD). IL-17a was quantified using the V-Plex Human IL-17a kit on a Sector Imager 6000 reader (Meso Scale Discovery, Rockville, MD). Supernatants from rat whole blood assay were analyzed for IL-2 levels using the rat IL-2 Duoset ELISA kit (R&D). […]

Tregs = experiment: Mouse accelerated Lupus model: Treg levels; type: in vivo, mice; details: 3 and 30 mg/kg daily
Procedure: In this example, REO-528 MALT1 inhibitor was administered to mice of an accelerated Lupus Nephritis model (IFN-alpha accelerated) to investigate the impact of the administration of the MALT1 inhibitor. Mice were divided into 6 groups: 1) Naïve, 2) vehicle (weeks 13-18), 3) REO538 (3 mg/kg) daily administration weeks 13-18, 4) REO-538 (30 mg/kg) daily administration weeks 13-18, 5) REO-538 (30 mg/kg) daily administration weeks 15-18, and 6) BID dexamethasone (Dex) at 1 mg/kg for weeks 15-18. Groups 2 through 6 were also administered AAV encoding mIFNα to accelerate the lupus nephritis disease.

[2] = test system: rat collagen induced arthritis (CIA) model; experiment: Rat collagen-induced arthritis model: clinical score
Excerpt: Adult female Lewis Rats (180-200 g body weight) were immunized subcutaneously with Type II bovine collagen/Incomplete Freund's Adjuvant emulsion on Day 0 and Day 7. On Day 14 rats were randomized based on clinical disease scores in different treatment groups. Rats received either once daily (q.d) dose of compounds via oral gavage or Vehicle (0.5% Carboxymethylcellulose-Na+0.5% Tween 80 in water, suspension) for 2 weeks. Naïve rats used as controls.

CD4+ Total T-cells = experiment: Total CD4+ T-cell cytokine release assay; type: cell-based, human; details: CD4+ Total T-cells (a-CD3/-CD28)
Procedure: All cytokine measurements were performed using commercially available kits and as per manufacturer's protocol. Supernatants from human whole blood and cellular assays were quantified using the human Proinflammatory Panel 1 (human) kit on a Sector Imager 6000 reader (Meso Scale Discovery, Rockville, MD). IL-17a was quantified using the V-Plex Human IL-17a kit on a Sector Imager 6000 reader (Meso Scale Discovery, Rockville, MD). Supernatants from rat whole blood assay were analyzed for IL-2 levels using the rat IL-2 Duoset ELISA kit (R&D). Plasma and synovial samples harvested from the rat CIA study were quantified for proinflammatory cytokines using the rat V-PLEX Proinflammatory Panel 2 kit (MSD).

Jurkat-T cells = experiment: Jurkat IL-2 assay; details: Jurkat-T cells (a-CD3/-CD28/-CD2); readout IL-2
Procedure: Cells were cultured in RPMI/10% FBS (Thermofisher) and maintained under a concentration of 3×10^6 cells/ml. MALT1i at different concentrations were stamped by ECHO onto 384-well plates (PerkinElmer, Waltham, MA) following which cells were plated in fresh media and incubated for 30 minutes before stimulation with soluble α-CD3/CD28/CD2 (ImmunoCult, Stemcell Technologies, Vancouver, Canada) for 24 h. Supernatants were collected as mentioned earlier and processed immediately for cytokine analysis or stored at −80° C. To assess viability of cells treated with compound, cells were lysed with CTG reagent (Promega, Madison, WI), and measured by luminometer.

Total B cells = experiment: B-cell proliferation assay (BCR/CD40L); details: readout Proliferation
Procedure: Freshly isolated total CD19^+ B-cells (Stemcell) from Human PBMCs were labeled with 2 μM Cell Trace Violet (ThermoFisher) and incubated for 5 min on a Nutator. […] Proliferation was assessed by flow cytometry.

[3] = test system: CD4+CD45RO+ Memory T-cells; experiment: Memory CD4+ T-cell cytokine release assay; details: Memory T-cells (a-CD3/-CD28/-CD2)
Procedure: Memory CD4^+ T-cells were isolated from human donor PBMCs using an EasySep kit (Stemcell) and were rested overnight in complete RPMI media (Thermofisher) supplemented with 10% FBS (Atlanta Biologics), 10 mM HEPES, 2 mM GlutaMAX, 1 mM Na Pyruvate, and 1×MEM non-essential amino acids (Thermofisher).

[4] = test system: human monocyte-derived macrophages; experiment: Monocyte-derived macrophages stimulated with depleted zymosan
Procedure: (§2) After differentiation, cells were harvested with Accutase solution (Stemcell Technologies) and incubated for 2 h at 37° C., 5% CO2 in 96-well plates.

[5] = test system: human monocyte-derived macrophages; experiment: Monocyte-derived macrophages stimulated with IgG immune complex; details: Macrophages (aIgG + IgG, immune-complex)
Procedure: as §2

Compound: CN(C(=O)C1CCS(=O)(=O)CC1)[C@@H](c1ccc(Nc2cnc3cccnc3c2C2CC2)cc1)C(F)(F)F [REO-538]
- IC90 (MALT1; example values, blood concentration target, read-out: IC90): 10.4 µM
- IC90 (MALT1; higher dotted line of FIG. 13B, read-out: IC90 value (estimated)): ~1 µg/mL
- IC50 (MALT1; lower dotted line of FIG. 13B, read-out: estimated IC50 value (converted)): ~0.376 µM
- reduction in the Treg levels (splenic Tregs; 1 mg/kg dose): 1%
- reduction in the Treg levels (splenic Tregs; 10 mg/kg dose): 49%
- log10AUC value at ~40% reduction in Treg levels (splenic Tregs; rat CIA model): ~2.0 μg*hr/mL
- qualitative Treg impact (FIG. 11) (splenic Tregs; rat CIA model): low Treg impact
- IL-1beta and IL-6 in synovial fluid ([1]; 10 mg/kg and 10+3 mg/kg groups in comparison to the 3 mg/kg group): lower
- KC/GRO and TNFα in synovial fluid ([1]; each of the 3 mg/kg, 10 mg/kg and 10+3 mg/kg groups in comparison to vehicle): lower levels
- Treg levels (Tregs): reduced Treg levels in a dose dependent manner
- reduction in the clinical score ([2]; 0.3 mg/kg dose, in comparison to the vehicle treatment): 26%
- reduction in the clinical score ([2]; 1 mg/kg dose, in comparison to the vehicle treatment): 59%
- reduction in the clinical score ([2]; 3 mg/kg dose, in comparison to the vehicle treatment): 65%
- reduction in the clinical score ([2]; 10 mg/kg dose, in comparison to the vehicle treatment): 80%
- reduction in the clinical score ([2]; Example 6: daily 3 mg/kg for 14 days, vs vehicle): 25%
- reduction in the clinical score ([2]; Example 6: daily 10 mg/kg for 2 days followed by daily 3 mg/kg for 12 days, vs vehicle): 43%
- reduction in the clinical score ([2]; Example 6: daily 10 mg/kg for 14 days, vs vehicle): 70%
- log10AUC value at ~50% reduction in the clinical score ([2]; rat CIA model): ~1.2 μg*hr/mL
- qualitative efficacy (FIG. 11) ([2]; rat CIA model): high efficacy

Compound: CO[C@@H](C)c1c(NC(=O)Nc2ccnc(C(F)(F)F)c2)cnc2cc(Cl)nn12 [REO-981]
- Effect size (% Max. inhibition) (CD4+ Total T-cells; readout IFNg): >95%
- Effect size (% Max. inhibition) (CD4+ Total T-cells; readout IL-2): >95%
- Effect size (% Max. inhibition) (CD4+ Total T-cells; readout TNFa): ~85%
- log10Ctrough value at ~40% reduction in Treg levels (splenic Tregs; rat, in vivo): ~3.3 ng/mL
- Effect size (% Max. inhibition) (Jurkat-T cells): >95%
- Effect size (% Max. inhibition) (Total B cells): ~60%
- Effect size (% Max. inhibition) ([3]; readout IFNg): ~80%
- Effect size (% Max. inhibition) ([3]; readout IL-2): >90%
- Effect size (% Max. inhibition) ([3]; readout IL-17): >90%
- Effect size (% Max. inhibition) ([3]; readout TNFa): ~85%
- log10Ctrough value at ~50% reduction in the clinical score ([2]; rat, in vivo): ~2.6 ng/mL
- Effect size (% Max. inhibition) ([4]; readout IL-6): >60%
- Effect size (% Max. inhibition) ([4]; readout TNFa): >75%
- Effect size (% Max. inhibition) ([5]; readout IL-6): >75%
- Effect size (% Max. inhibition) ([5]; readout TNFa): ~74%
